Our source for the inhibition values is US5166154A, “Imidazo[1,2-a]piperazines” (Boehringer Ingelheim Pharmaceuticals, Inc., priority 1991, dated 1992).

Like-named read-outs stand apart in the source and are kept apart here.

The target in this assay is T1, Human sputum elastase (HSE) (Homo sapiens, UniProt P08246).
T1 construct: purchased Elastin Products Co., Pacific, Mo; host or cells: human sputum
T1 sequence (P08246 30-247 limits assumed): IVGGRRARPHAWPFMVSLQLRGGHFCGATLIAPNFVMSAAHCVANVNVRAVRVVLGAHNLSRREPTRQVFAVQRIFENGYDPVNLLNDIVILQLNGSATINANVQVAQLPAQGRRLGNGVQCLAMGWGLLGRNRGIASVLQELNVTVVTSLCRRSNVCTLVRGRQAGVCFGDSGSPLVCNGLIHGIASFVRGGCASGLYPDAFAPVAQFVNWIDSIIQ
Briefly: In vitro elastase inhibition, hydrolysis of MeO-Suc-Ala-Ala-Pro-Val-pNA (release of pNA, 405 nm). The following applies: 5 ug/mL, 0.5 mM substrate, pH 7.5, 15 min pre-incubation. In kind it is biochemical. The source says: The method of K. Nakajima et al., Journal of Biological Chemistry, 254: 4027-4032 (1979) was adapted to a microtiter format. The in vitro assay is based upon the hydrolysis of the commercially available (Sigma Chemical Company, St. Louis, Mo.) substrate methoxy O-succinyl-L-alanyl-L-alanyl-L-prolyl-L-valine para-nitroanilide (MeO-Suc-Ala-Ala-Pro-Val-pNA) and the release of para-nitroanilide (pNA), which absorbs at 405 nm.
a. Human sputum elastase (HSE) (Elastin Products Co., Pacific, Mo.) dissolved in 1 mg/mL in 0.05M sodium chloride and frozen (50 μL aliquots) at -20° C. until used.
b. Stock solution of MeO-succinyl-L-Alanyl-L-Alanyl-Pro-Val-pNA dissolved at 15 mM in dimethylsulfoxide (DMSO) and frozen (4 mL aliquots) at -20° C. until used.
c. Assay buffer: 0.1M Tris buffer, pH 7.5 containing 0.5M sodium chloride.
Screening is performed in microtiter plates, using 0.5 mM substrate and monitored on a Microtiter Reader. Enzyme activity (+/- test compound) is determined as the rate of pNA release (linear regression analysis of slope). Inhibitory activity of the test compound is calculated relative to the uninhibited enzyme control, as follows: [formula]
A frozen aliquot of HSE is thawed and diluted with assay buffer to a stock concentration of 0.02 mg/mL (30×assay concentration). A frozen aliquot of the substrate stock solution is thawed and diluted to 0.5 mM with the assay buffer (final DMSO concentration is […]). 10 μl of the test compound stock solution (or assay buffer) and 10 μl of the HSE stock solutions are pipetted into each microtiter well, in duplicate. The plate is mixed well, and pre-incubated at room temperature for 15 minutes. A 300 μl substrate solution is then added to each well and the OD405 is followed for approximately 30 minutes.
Further, it is known to those skilled in the art that the biological activities of pharmaceutical agents may be diminished in vitro when human serum albumin (HSA) is added. This is due to the probable binding of compounds to protein. In the case of the present invention, however, the compounds of the present invention are just as active in vitro without or with 0.5% HSA and thus would be expected not to bind to plasma in an in vivo situation or in a diagnostic setting.

The mark [1] stands for this setting: 0% HSA (human serum albumin), read-out: % INHIBITION (5 ug/mL), 0% HSA.
[2] abbreviates: 0.5% HSA (human serum albumin), read-out: % INHIBITION (5 ug/mL), 0.5% HSA.

For the molecule `CC(C)C1N=C2CN(C3Cc4ccccc4C3)C(=O)[C@H](C(C)C)N2C1(O)C(F)(F)F` (stereo partly drawn), the inhibition at 5 µg/mL was 86% under setting [1] and 84.5% under setting [2].

As to `CC(C)C1N=C2CN(C3CCCCCCC3)C(=O)[C@H](C(C)C)N2C1(O)C(F)(F)F` (stereo partly drawn), the inhibition at 5 µg/mL reads like this: under setting [1], 39.2%; under setting [2], 28%.

In the case of `COc1ccc(CCN2CC3=NC(C(C)C)C(O)(C(F)(F)F)N3[C@@H](C(C)C)C2=O)cc1OC` (stereo partly drawn), the inhibition at 5 µg/mL runs as follows: under setting [1], 47.5%; under setting [2], 58.6%.
